{"source": "patent US5614533A", "about": "“Substituted pipecolinic acid derivatives as HIV protease inhibitors” (Bio-Mega/Boehringer Ingelheim Research, Inc., priority 1994, dated 1997)", "key": {"[1]": {"target": "T1, HIV protease (Human immunodeficiency virus type 1 group M subtype B, UniProt P04585)", "T1 construct": "HIV protease was expressed in E. coli; made in house; host or cells: E. coli (plasmid pBRT1 prt+)", "assay": "Recombinant HIV Protease HPLC Assay", "assay_type": "biochemical", "details": "37°, 30 min, pH 5.5", "procedure,_shortened": "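Recombinant protease from E. coli (pBRT1 prt+ construct), purified and diluted 1/38 for use, cleaves the decapeptide substrate VSFNFPQITL-NH2, containing an HIV polyprotein cleavage site. Inhibition of cleavage is monitored by HPLC.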"}, "[2]": {"system": "HIV (H9/HTLV-IIIB) in C8166 cells", "assay": "plaque assay: inhibition of syncytia formation in HIV-infected C8166 cells", "assay_type": "cell-based", "details": "Human immunodeficiency virus 1, IIIB, 72 h, 50% inhibition of syncytia formation", "procedure,_shortened": "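C8166 cells (5×10^4/well) infected with 50× TCID50 H9/HTLV-IIIB in HEPES-buffered RPMI 1640 (pH 7.2), 10% FCS, with test compound in triplicate; 72 h at 37°, 5% CO2. Syncytia centers counted by phase-contrast microscopy; EC50 from percent inhibition versus serial dilutions by non-linear regression.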"}}}
{"compound": "CC(C)(C)NC(=O)[C@@H]1C[C@H](Sc2ncccn2)CCN1C[C@@H](O)[C@H](Cc1ccccc1)NC(=O)[C@H](CC(N)=O)NC(=O)c1ccc2ccccc2n1", "note": "[Table VI, entry 3, N-tert-butyl-1-{2(R)-hydroxy-4-phenyl-3(S)-{{N-(2-quinolylinylcarbonyl)asparaginyl}amino}butyl}-4(R)-(2-pyrimidinylthio)piperidine-2(S)-carboxamide]", "values": [{"measurement": "IC50", "setting": "[1]; Table VI", "value": 2.1, "unit": "nM"}, {"measurement": "EC50", "setting": "[2]; Table VI", "value": 60, "unit": "nM"}]}
{"compound": "CNC(=O)C[C@H](NC(=O)c1ccc2ccccc2n1)C(=O)N[C@@H](Cc1ccccc1)[C@H](O)CN1CC[C@@H](Oc2ccccc2)C[C@H]1C(=O)NC(C)(C)C", "note": "[Table VI, entry 4, N-tert-butyl-1-{2(R)-hydroxy-4-phenyl-3(S)-{{N-(2-quinolylinylcarbonyl)(N^4-methyl)asparaginyl}amino}butyl}-4(R)-phenoxypiperidine-2(S)-carboxamide]", "values": [{"measurement": "IC50", "setting": "[1]; Table VI", "value": 3.7, "unit": "nM"}, {"measurement": "EC50", "setting": "[2]; Table VI", "value": 13, "unit": "nM"}]}
{"compound": "CC(C)(C)NC(=O)[C@@H]1C[C@H](SCc2cccnc2)CCN1C[C@@H](O)[C@H](Cc1ccccc1)NC(=O)[C@@H](NC(=O)c1ccc2ccccc2n1)C(C)(C)C", "note": "[Table VI, entry 5, N-tert-butyl-1-{2(R)-hydroxy-4-phenyl-3(S)-{{N-(2-quinolylinylcarbonyl)tert-butylglycyl}amino}butyl}-4(R)-{(3-pyridinylmethyl)thio}piperidine-2(S)-carboxamide]", "values": [{"measurement": "IC50", "setting": "[1]; Table VI", "value": 2.2, "unit": "nM"}, {"measurement": "EC50", "setting": "[2]; Table VI", "value": 8, "unit": "nM"}]}
{"compound": "C[C@@H](O)[C@H](NC(=O)c1ccc2ccccc2n1)C(=O)N[C@@H](Cc1ccccc1)[C@H](O)CN1CC[C@@H](S(=O)(=O)c2ccccc2)C[C@H]1C(=O)NC(C)(C)C", "note": "[Table VI, entry 6, N-tert-butyl-1-{2(R)-hydroxy-4-phenyl-3(S)-{{N-(2-quinolylinylcarbonyl)threonyl}amino}butyl}-4(R)-(phenylsulfonyl)piperidine-2(S)-carboxamide]", "values": [{"measurement": "IC50", "setting": "[1]; Table VI", "value": 2.6, "unit": "nM"}, {"measurement": "EC50", "setting": "[2]; Table VI", "value": 61, "unit": "nM"}]}
{"compound": "CC(C)(C)NC(=O)[C@@H]1C[C@H](S(=O)(=O)c2ccncc2)CCN1C[C@@H](O)[C@H](Cc1ccccc1)NC(=O)[C@@H](NC(=O)c1ccc2ccccc2n1)C(C)(C)C", "note": "[Table VI, entry 7, N-tert-butyl-1-{2(R)-hydroxy-4-phenyl-3(S)-{{N-(2-quinolylinylcarbonyl)tert-butylglycyl}amino}butyl}-4(R)-(4-pyridinylsulfonyl)piperidine-2(S)-carboxamide]", "values": [{"measurement": "IC50", "setting": "[1]; Table VI", "value": 2.1, "unit": "nM"}, {"measurement": "EC50", "setting": "[2]; Table VI", "value": 29, "unit": "nM"}]}
{"compound": "CC(C)(C)NC(=O)[C@@H]1C[C@H](S(=O)(=O)c2ccccn2)CCN1C[C@@H](O)[C@H](Cc1ccccc1)NC(=O)[C@@H](NC(=O)c1ccc2ccccc2n1)C(C)(C)C", "note": "[Table VI, entry 8, N-tert-butyl-1-{2(R)-hydroxy-4-phenyl-3(S)-{{N-(2-quinolylinylcarbonyl)tert-butylglycyl}amino}butyl}-4(R)-(2-pyridinylsulfonyl)piperidine-2(S)-carboxamide]", "values": [{"measurement": "IC50", "setting": "[1]; Table VI", "value": 2.9, "unit": "nM"}, {"measurement": "EC50", "setting": "[2]; Table VI", "value": 44, "unit": "nM"}]}
{"compound": "Cc1cccc(C)c1OCC(=O)N[C@@H](Cc1ccccc1)[C@H](O)CN1CC[C@@H](SCc2cccnc2)C[C@H]1C(=O)NC(C)(C)C", "note": "[Table VII, entry 1, N-tert-Butyl-1-{3(S)-{{(2,6-dimethylphenoxy)acetyl}amino}-2(R)-hydroxy-4-phenylbutyl}-4(R)-{(3-pyridinylmethyl)thio}piperidine-2(S)-carboxamide]", "values": [{"measurement": "IC50", "setting": "[1]; Table VII", "value": 2.7, "unit": "nM"}, {"measurement": "EC50", "setting": "[2]; Table VII", "value": 35, "unit": "nM"}]}
{"compound": "Cc1cc(C)c(OCC(=O)N[C@@H](Cc2ccccc2)[C@H](O)CN2CC[C@@H](Sc3ccncc3)C[C@H]2C(=O)NC(C)(C)C)c(C)c1", "note": "[Table VII, entry 2, N-tert-butyl-1-{3(S)-{{(2,4,6-trimethylphenoxy)acetyl}amino}-2(R)-hydroxy-4-phenylbutyl}-4(R)-(4-pyridinylthio)piperidine-2(S)-carboxamide]", "values": [{"measurement": "IC50", "setting": "[1]; Table VII", "value": 3.7, "unit": "nM"}, {"measurement": "EC50", "setting": "[2]; Table VII", "value": 47, "unit": "nM"}]}
{"compound": "Cc1cccc(C)c1OCC(=O)N[C@@H](Cc1ccccc1)[C@H](O)CN1CC[C@@H](Sc2ccncc2)C[C@H]1C(=O)NC(C)(C)C", "note": "[Table VII, entry 4, N-tert-butyl-1-{3(S)-{{(2,6-dimethylphenoxy)acetyl}amino}-2(R)-hydroxy-4-phenylbutyl}-4(R)-(4-pyridinylthio)piperidine-2(S)-carboxamide]", "values": [{"measurement": "IC50", "setting": "[1]; Table VII", "value": 3.1, "unit": "nM"}, {"measurement": "EC50", "setting": "[2]; Table VII", "value": 20, "unit": "nM"}]}
{"compound": "Cc1ccccc1OCC(=O)N[C@@H](Cc1ccccc1)[C@H](O)CN1CC[C@@H](Sc2ccncc2)C[C@H]1C(=O)NC(C)(C)C", "note": "[Table VII, entry 5, N-tert-butyl-1-{3(S)-{{(2-methylphenoxy)acetyl}amino}-2(R)-hydroxy-4-phenylbutyl}-4(R)-(4-pyridinylthio)piperidine-2(S)-carboxamide]", "values": [{"measurement": "IC50", "setting": "[1]; Table VII", "value": 6.2, "unit": "nM"}, {"measurement": "EC50", "setting": "[2]; Table VII", "value": 140, "unit": "nM"}]}
{"compound": "CC(C)(C)NC(=O)[C@@H]1C[C@H](Sc2ccncc2)CCN1C[C@@H](O)[C@H](Cc1ccccc1)NC(=O)c1ccc(Cl)cc1Cl", "note": "[Table VII, entry 6, N-tert-butyl-1-{3(S)-{{(2,4-dichlorophenyl)carbonyl}amino}-2(R)-hydroxy-4-phenylbutyl}-4(R)-(4-pyridinylthio)piperidine-2(S)-carboxamide]", "values": [{"measurement": "IC50", "setting": "[1]; Table VII", "value": 5.4, "unit": "nM"}, {"measurement": "EC50", "setting": "[2]; Table VII", "value": 340, "unit": "nM"}]}
{"compound": "CC(C)(C)NC(=O)[C@@H]1C[C@H](Sc2ccncc2)CCN1C[C@@H](O)[C@H](Cc1ccccc1)NC(=O)c1cc(Cl)ccc1Cl", "note": "[Table VII, entry 7, N-tert-butyl-1-{3(S)-{{(2,5-dichlorophenyl)carbonyl}amino}-2(R)-hydroxy-4-phenylbutyl}-4(R)-(4-pyridinylthio)piperidine-2(S)-carboxamide]", "values": [{"measurement": "IC50", "setting": "[1]; Table VII", "value": 9.8, "unit": "nM"}, {"measurement": "EC50", "setting": "[2]; Table VII", "value": 360, "unit": "nM"}]}
{"compound": "CC(C)(C)NC(=O)[C@@H]1C[C@H](Sc2ccncc2)CCN1C[C@@H](O)[C@H](Cc1ccccc1)NC(=O)c1c(F)cccc1F", "note": "[Table VII, entry 8, N-tert-butyl-1-{3(S)-{{(2,6-difluorophenyl)carbonyl}amino}-2(R)-hydroxy-4-phenylbutyl}-4(R)-(4-pyridinylthio)piperidine-2(S)-carboxamide]", "values": [{"measurement": "IC50", "setting": "[1]; Table VII", "value": 14, "unit": "nM"}, {"measurement": "EC50", "setting": "[2]; Table VII", "value": 340, "unit": "nM"}]}
